# Laboratory results taken from patent US20170087167A1, “MODIFICATION OF DRUGS FOR INCORPORATION INTO NANOPARTICLES” (UNIVERSITY OF GEORGIA RESEARCH FOUNDATION, INC., priority 2015, published 2017).
# How the values were obtained:
# TNF-α = assay: In vivo inflammation study, LPS stimulated mouse model, serum TNF-α by ELISA; parameters: species or system BALB/c Albino male mice; conditions: 20 mg/kg (with respect to aspirin) i.v.
# Experimental: (§1) To explore the anti-inflammatory properties of the new aspirin derivative in NP formulation in vivo, we used mice stimulated with lipopolysaccharide (LPS). […] In our studies following similar protocol in C57BL/6 or BALB/c (albino) mice, we observed enhanced levels of TNF-α and IL-6 in the serum after intraperitonial administration of 100 μg of LPS per animal and the levels peaked at 1.5 and 3 h, respectively for TNF-α and IL-6. Next, 8 week old BALB/c male mice were administered with saline or aspirin (20 mg/kg) or NT-(Asp)4-NP (20 mg/kg with respect to aspirin) or T-(Asp)4-NP (20 mg/kg with respect to aspirin) by i.v. injections and after 12 h, these animals were subsequently treated with intraperitonially injected LPS for 1.5 h and 3 h (FIG. 3A). Serum samples were isolated from the treated animals and pro-inflammatory and anti-inflammatory cytokine levels in the serum samples were evaluated by the enzyme-linked immunosorbent assay (ELISA).
# (§2) Anti-inflammatory properties of T/NT-(Asp)4-NPs and aspirin were evaluated in LPS stimulated mouse model. […] The absorbance of the product formed was recorded at 450 nm using a BioTek Synergy HT well plate reader.
# IL-6 = assay: In vivo inflammation study, LPS stimulated mouse model, serum IL-6 by ELISA; parameters: species or system BALB/c Albino male mice; conditions: 12 h before LPS
# Experimental: as §1, §2
smiles,measurement,setting,value
"CC(=O)Oc1ccccc1C(=O)O [aspirin, acetylsalicylic acid]",serum TNF-α level compared to only LPS,"TNF-α; 12 h before LPS i.p., LPS for 1.5 h",non-significant
same,serum TNF-α level,"TNF-α; 12 h before LPS, LPS for 3 h",did not show any significant differences
same,serum IL-6 level compared to only LPS,"IL-6; 20 mg/kg (with respect to aspirin) i.v., LPS for 1.5 h",significantly reduced
same,serum IL-6 level compared to LPS alone,"IL-6; 20 mg/kg i.v., LPS for 3 h",reduced IL-6 levels
